Experimental data: patent publication US10463658B2, “Method of inhibiting FLT3 kinase” (AROG Pharmaceuticals, LLC, priority 2013, dated 2019)
Substitutions are numbered along the chain they refer to.

Columns and labels:
FLT3 (ITD, D835V) = target: T1, FLT3 (ITD, D835V) (Homo sapiens, UniProt P36888, D835V, form not given); assay: KINOMEscan KdElect competitive binding assay, dual mutant FLT3 (ITD, D835V); settings: tosylate salt; read-out: Kd, FLT3 (ITD, D835V) double mutant
T1 construct: fused on or other part: DNA tag / T7 phage display tag for qPCR detection
T1 sequence (P36888 1-993 D835V): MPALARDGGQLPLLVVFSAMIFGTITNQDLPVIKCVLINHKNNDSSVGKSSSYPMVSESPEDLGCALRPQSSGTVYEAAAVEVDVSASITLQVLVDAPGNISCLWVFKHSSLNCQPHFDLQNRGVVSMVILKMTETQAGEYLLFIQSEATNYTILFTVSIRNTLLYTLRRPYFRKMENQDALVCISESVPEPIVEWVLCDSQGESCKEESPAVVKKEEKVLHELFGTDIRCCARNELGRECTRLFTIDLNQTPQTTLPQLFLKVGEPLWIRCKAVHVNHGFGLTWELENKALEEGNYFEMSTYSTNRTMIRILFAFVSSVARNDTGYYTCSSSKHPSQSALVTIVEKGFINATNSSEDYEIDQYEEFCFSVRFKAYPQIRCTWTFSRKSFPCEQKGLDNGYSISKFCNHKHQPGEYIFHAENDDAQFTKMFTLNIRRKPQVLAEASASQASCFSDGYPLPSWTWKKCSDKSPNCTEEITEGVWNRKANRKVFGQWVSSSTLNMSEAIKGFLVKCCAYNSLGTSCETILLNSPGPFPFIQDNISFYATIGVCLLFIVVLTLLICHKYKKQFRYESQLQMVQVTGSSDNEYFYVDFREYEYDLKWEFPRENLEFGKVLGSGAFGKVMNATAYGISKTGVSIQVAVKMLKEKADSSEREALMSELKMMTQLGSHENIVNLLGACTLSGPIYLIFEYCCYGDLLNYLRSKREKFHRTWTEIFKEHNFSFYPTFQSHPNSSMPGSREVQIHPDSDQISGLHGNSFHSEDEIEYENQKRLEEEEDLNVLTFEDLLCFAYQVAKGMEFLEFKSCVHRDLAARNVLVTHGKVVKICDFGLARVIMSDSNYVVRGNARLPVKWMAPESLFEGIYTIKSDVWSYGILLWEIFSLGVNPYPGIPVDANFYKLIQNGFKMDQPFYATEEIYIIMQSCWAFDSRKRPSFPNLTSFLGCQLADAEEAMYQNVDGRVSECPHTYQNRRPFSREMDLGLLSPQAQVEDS
Source text: (§1) Competitive binding assay.
(§2) The lysates were then centrifuged and filtered.

FLT3 D835H = target: T2, FLT3 D835H (Homo sapiens, UniProt P36888, D835H); assay: KINOMEscan KdElect competitive binding assay, FLT3 D835H; settings: tosylate salt
T2 construct: host or cells: E. coli BL21-derived host (T7 phage) or HEK-293
T2 sequence (P36888 610-943 D835H limits assumed): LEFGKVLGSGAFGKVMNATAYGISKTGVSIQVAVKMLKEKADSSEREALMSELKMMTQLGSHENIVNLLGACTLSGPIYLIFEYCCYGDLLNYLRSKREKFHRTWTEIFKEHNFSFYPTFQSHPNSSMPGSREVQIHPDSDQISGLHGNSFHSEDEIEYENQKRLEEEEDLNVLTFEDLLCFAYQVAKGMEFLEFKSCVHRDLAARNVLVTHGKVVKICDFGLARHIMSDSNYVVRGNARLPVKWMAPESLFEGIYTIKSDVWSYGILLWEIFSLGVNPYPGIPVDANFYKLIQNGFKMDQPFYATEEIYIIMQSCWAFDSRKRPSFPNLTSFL
Source text: as §1, §2

FLT3 N841I = target: T3, FLT3 N841I (Homo sapiens, UniProt P36888, N841I); assay: KINOMEscan KdElect competitive binding assay, FLT3 N841I; settings: tosylate salt; read-out: Binding Constant (Kd), FLT3 N841I
T3 construct: host or cells: E. coli BL21-derived host (T7 phage) or HEK-293
T3 sequence (P36888 610-943 N841I limits assumed): T2 sequence (P36888 610-943 D835H limits assumed) with H226D, N232I
Source text: as §1, §2

FLT3 ITD = target: T4, FLT3 ITD (Homo sapiens, UniProt P36888); assay: Inhibition of FLT3-ITD phosphorylation by western blot in BaF3 cells transduced to express FLT3; type: cell-based; settings: Ba/F3 FLT3-ITD cells, tosylate salt, read-out: IC50, inhibition of phosphorylation of the FLT3-ITD receptor
T4 sequence (P36888 1-993): T1 sequence (P36888 1-993 D835V) with V835D
Protocol: The ability of the tosylate (toluenesulfonate) salt of CP-673,451 to inhibit phosphorylated FLT3 was determined using cell lines expressing FLT3-ITD, including Molm-13 (a human acute myeloid leukemia cell line) and BaF3 (bone marrow-derived pro-B-cell line) cells transduced to express FLT3. The effect was examined by western blot.

Compound: COCCOc1ccc2c(c1)ncn2-c1ccc2cccc(N3CCC(N)CC3)c2n1 [CP-673,451]
- Kd (FLT3 (ITD, D835V)): 0.015 nM
- Kd (FLT3 D835H): 0.16 nM
- Kd (FLT3 N841I): 0.39 nM
- IC50 (FLT3 ITD): 5.1 nM
